{"source": "patent US8367716B2", "about": "(priority 2003, dated 2013)", "key": {"S. aureus [1]": {"test_system": "S. aureus", "assay": "Tube agglutination assay and light microscopy (cell-to-cell aggregation)", "assay_type": "cell-based, Staphylococcus aureus", "protocol": "Tube agglutination assay and light microscopy. Colonies from a 18 h blood agar plate were inoculated into 1 ml PBS to make a 0.5 McFarland standard containing ˜5×10^8 cfu/ml (confirmed by plate count). A 5 μl aliquot from the 0.5 McFarland standard was then inoculated into 5 ml polystyrene tubes containing 1 ml TSB representing ˜10^5 cfu/ml (confirmed by plate count). These tubes were inoculated either with 50 μl c-di-GMP to give a 200 μM c-di-GMP final concentration representing a “treated” sample or inoculated with 50 μl 0.9% NaCl as a control and representing an “untreated” control. Cultures were incubated at 37° C. for 24 h statically. Following incubation, these cultures were examined macroscopically and microscopically (Zeiss Axioskop) for the presence or absence of visible cell-to-cell clumping."}, "S. aureus [2]": {"test_system": "S. aureus", "assay": "Biofilm formation on polystyrene microtitre plates (crystal violet, O.D.570)", "assay_type": "cell-based, Staphylococcus aureus", "protocol": "Effect of c-di-GMP on S. aureus biofilm formation. S. aureus strains were subcultured from glycerol stocks onto blood agar plates and incubated at 37° C. for 18 h. A single colony was inoculated into 5 ml TSB broth with a sterilized loop and incubated at 37° C. for 18 h with shaking at 250 rpm and until the O.D.660 reached 3.0 as measured spectrophotometrically using a spectrophotometer (SpectraMAX 250, Molecular Devices). Following incubation, the culture was diluted 1:250 with fresh TSB and a 200 μl of the diluted culture was transferred into wells of a flat-bottom polystyrene microtitre plate (Evergreen Scientific). […] In these biofilm experiments, similar volumes of 0.9% NaCl was added to a set of different wells representing the “untreated” control samples. The microtitre plates were then incubated statically at 37° C. for 24 h or 48 h. Following incubation, the supernatant was carefully discarded and the wells washed twice with 260 μl PBS. The plate was then kept for drying on a paper towel for 30 min after which 260 μl 0.1% crystal violet was added to each well and the plates incubated at room temperature for 30 min. The crystal violet was discarded and plate washed gently with water, the wells allowed to dry for 30 min then 260 μl DMSO was added to each well and gently agitated for 1 h and the O.D.570 measured by using a spectrophotometer (SpectraMAX 250, Molecular Devices). The results of these biofilm assays were based on data obtained from at least three independent colonies tested in duplicate."}, "[3]": {"test_system": "S. aureus strain DK825 adherence to HeLa cells", "assay": "Epithelial cell assay (bacterial adherence to HeLa cells)", "assay_type": "cell-based, Staphylococcus aureus", "protocol": "Epithelial cell assay. HeLa cells (ATCC CCL2) were grown to confluence in complete medium (10% FBS from Sigma, DMEM/F12 with glutamine from Invitrogen and 50 μg/ml gentamicin) and were trypsinized with 0.1% trypsin-EDTA. Approximately 1×10^5 HeLa cells were seeded in each well of a chamber slide and then the HeLa cells were incubated at 37° C. in 5% CO2 for at least 18 h until 85% confluent. Prior to infection, the HeLa cells were washed twice with warm PBS and then 500 μl warm FMEM/F12 was added to each well. For the bacterial adherence assay, an overnight culture of S. aureus strain DK825 was grown overnight in 5 ml LB broth at 37° C. with shaking at 250 rpm. Following incubation, 1 ml of the overnight culture was pelleted, washed twice with PBS and resuspended in 1 ml of PBS. The HeLa cells in the wells were washed twice with 500 μl of HBSS and aliquots of DMEM with the desired final concentration of c-di-GMP (0-, 2-, 20- and 200 μM) were prepared. DMEM (500 μl) containing the respective concentrations of c-di-GMP was inoculated into the wells containing HeLa cells followed by the addition of 10 μl (˜10^7 cells) S. aureus (MOI HeLa:bacteria˜1:100). The epithelial cell assay was incubated in CO2 for 45 min. Following incubation the cells were washed twice with 500 μl PBS and fixed with 2% formalin for 20 min. The cells were again washed twice with PBS and stained with Giemsa stain for 10 seconds, washed three times with PBS, then the cells covered with 40 μl of 90% glycerol in water and a cover slip was placed. The slides were observed under a light microscope (Zeiss Axioskop) at 630×mag. The level of bacterial adherence to 100 individual HeLa cells was calculated for each duplicate treatment and the average determined."}, "[4]": {"test_system": "S. aureus Newbould 305 strain", "assay": "Mouse mastitis model of S. aureus infection", "assay_type": "in vivo, Staphylococcus aureus", "protocol": "A mouse mastitis model of S. aurreus infection using the S. aureus Newbould 305 strain (Brouillette et al., 2003, 2004a and 2004b) was used to show the effectiveness of treatment with c-di-GMP. Three mice per group and two glands per mouse were used for a total of six samples per treatment. 100 CFU (colony forming units) of S. aureus Newbould 305 strain were inoculated into each mammary gland. Five or 50 nanomoles of c-di-GMP was administered by injection twice into each mammary gland at 0 hr. (pre-mixed with the S. aureus inoculum in 100 μl volume, i.e., 50 or 500 μM concentration) and at 4 hr. post-infection (in 50 μl, i.e., 100 or 1000 μM). The mammary glands were harvested at 10 hrs. post-infection. Considering the volume of the mammary gland with milk to be about 250 μl, the final concentration of c-di-GMP in the mammary gland at each injection was estimated to be 20 μM or 200 μM."}}, "data": [{"smiles": "Nc1nc2c(ncn2C2OC3COP(=O)(O)OC4C(COP(=O)(O)OC3C2O)OC(n2cnc3c(=O)[nH]c(N)nc32)C4O)c(=O)[nH]1", "note": "(stereo not drawn) [c-di-GMP, 3′,5′-cyclic diguanylic acid]", "values": [{"measurement": "cell-to-cell interactions and clumping (Gram stain, light microscopy)", "setting": "S. aureus [1]; DK825, 200 μM", "result": "dramatically less cell-to-cell interactions and clumping"}, {"measurement": "visible cell aggregation (macroscopic)", "setting": "S. aureus [1]; DK825, 200 μM, 24 h static", "result": "no obvious visible cell aggregation or pellet"}, {"measurement": "visible cell aggregation (macroscopic)", "setting": "S. aureus [1]; bap mutant M556", "result": "inhibits cell aggregation"}, {"measurement": "cell-to-cell interactions and clumping (Gram stain, light microscopy)", "setting": "S. aureus [1]; bovine mastitis strains V329, V299, V315", "result": "less intercellular interactions and clumping"}, {"measurement": "reduction of biofilm formation", "setting": "S. aureus [2]; DK825, 20 μM, 24 h", "result": "~50", "unit": "%"}, {"measurement": "reduction of biofilm formation", "setting": "S. aureus [2]; DK825, 200 μM, 24 h", "result": "~65", "unit": "%"}, {"measurement": "reduction of biofilm formation", "setting": "S. aureus [2]; DK825, 400 μM, 24 h", "result": "~85", "unit": "%"}, {"measurement": "reduction of biofilm formation", "setting": "S. aureus [2]; bovine strains V329, M556, V299, V315", "result": "50-70%"}, {"measurement": "reduction of cell-to-surface interactions and biofilm formation", "setting": "S. aureus [2]; human and bovine isolates vs untreated controls", "result": "> 50", "unit": "%"}, {"measurement": "effect on adherence to HeLa cells", "setting": "[3]; 2 μM", "result": "did not show any obvious effect"}, {"measurement": "effect on adherence to HeLa cells", "setting": "[3]; 20 μM", "result": "did not show any obvious effect"}, {"measurement": "reduction in adherence", "setting": "[3]; 200 μM", "result": "~66", "unit": "%"}, {"measurement": "average adherence", "setting": "[3]; 200 μM, untreated 12 bacteria/cell", "result": 4, "unit": "bacteria/cell"}, {"measurement": "effect on CFU counts in the mammary gland", "setting": "[4]; 5 or 50 nanomoles per injection", "result": "significant dose-dependent suppressing effect"}, {"measurement": "inhibition of S. aureus infection of the mammary gland (CFU counts)", "setting": "[4]; 50 nanomoles injected into mammary gland at 0 and 4 hr., harvest 10 hrs. post-infection", "result": "at least 10 fold"}]}]}
